# Patent publication US4710500A, “1-(4'-fluorophenyl)-3,5-substituted indoles useful in the treatment of psychic disorders and pharmaceutical compositions thereof” (H. Lundbeck A/S, priority 1985, dated 1987)
# Where two headings read alike, the source gives them in different places.
# What was measured:
# [1] = tested on: methylphenidate-induced gnawing; experiment: Methylphenidate antagonism; type: in vivo, mice; details: for ED50: Mus musculus
# Catalepsy = type: in vivo, rat
# 5-HT2 receptor = target: T1, 5-HT2 receptor (Rattus norvegicus, UniProt P14842); experiment: Quipazine inhibition (head twitches); type: in vivo; details: sc 2 hours before quipazine 15 umol/kg sc
# T1 construct: from tissue; host or cells: living rats (in vivo), CNS
# T1 sequence (P14842 whole entry): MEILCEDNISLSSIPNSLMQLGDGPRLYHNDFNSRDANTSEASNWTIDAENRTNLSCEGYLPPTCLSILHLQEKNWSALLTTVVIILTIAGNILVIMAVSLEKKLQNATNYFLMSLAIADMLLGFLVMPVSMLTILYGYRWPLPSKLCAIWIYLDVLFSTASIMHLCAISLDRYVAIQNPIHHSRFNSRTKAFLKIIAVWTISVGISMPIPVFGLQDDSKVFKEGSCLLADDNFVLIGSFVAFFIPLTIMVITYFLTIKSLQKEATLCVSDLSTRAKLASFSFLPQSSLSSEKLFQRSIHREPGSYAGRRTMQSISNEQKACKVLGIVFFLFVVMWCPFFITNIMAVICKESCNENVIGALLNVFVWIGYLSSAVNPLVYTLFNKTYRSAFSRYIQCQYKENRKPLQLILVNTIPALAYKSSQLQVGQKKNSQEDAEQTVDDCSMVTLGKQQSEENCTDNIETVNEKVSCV
# Protocol: Quipazine and a number of other compounds, which increase 5-HT2 receptor activity in the CNS, induce a characteristic rapid shake (twitch) of the head. This response is inhibited by 5-HT2 receptor antagonists (Vetulani et al. 1980, Arnt et al. 1984).
# The test compound or saline is injected subcutaneously 2 hours before subcutaneous injection of quipazine hemimalecate (15umol/kg). At least 3 dose groups, each consisting of at least 4 rats, are used. The rats are individually placed in observation cages (12×25 cm) and the number of head twitches are counted 30-40 min after quipazine administration. Inhibition of head twitches is expressed in per cent of the number of head twitches in the control group. ED 50 values are calculated by log-probit analysis.
# Vetulani, J., B.B. Beduarczyk, K. Reichenberg and A. Rokost: Neuropharmacology 19, 155-158, […].
# (§1) Arnt, J., J. Hyttel and J.-J. Larsen: Acta pharmacol. et toxicol. 55, 363-372, 1984.
# [2] = target: T2, dopamine (DA) D-2 receptors (Rattus norvegicus, UniProt P61169); experiment: 3H-spiroperidol binding, dopamine D-2 receptors in rat striatal membranes
# T2 construct: DA D-2 receptors in rat striatal membranes; from tissue; host or cells: rat striatal membranes
# T2 sequence (P61169 whole entry): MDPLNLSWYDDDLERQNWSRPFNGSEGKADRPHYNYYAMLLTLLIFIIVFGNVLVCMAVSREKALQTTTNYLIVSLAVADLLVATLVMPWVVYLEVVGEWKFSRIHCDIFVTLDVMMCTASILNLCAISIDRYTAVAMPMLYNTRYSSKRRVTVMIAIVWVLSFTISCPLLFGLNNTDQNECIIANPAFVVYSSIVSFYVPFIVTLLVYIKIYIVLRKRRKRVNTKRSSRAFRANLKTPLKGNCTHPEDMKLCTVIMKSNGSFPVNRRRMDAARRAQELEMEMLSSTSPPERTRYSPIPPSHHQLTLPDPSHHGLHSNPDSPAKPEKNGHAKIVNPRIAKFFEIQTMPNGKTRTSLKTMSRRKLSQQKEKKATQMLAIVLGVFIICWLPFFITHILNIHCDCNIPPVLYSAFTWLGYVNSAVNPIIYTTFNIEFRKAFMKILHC
# Protocol: (§2) 4. ^3 H-spiroperidol bindings
# The affinity of compounds to dopamine (DA) D-2 receptors and serotomin2 (5-HT2) receptors was determined by in vitro receptor binding technique.
# Arnt, J., J. Hyttel and J.-J. Larsen: Acta pharmacol. et toxicol.
# [3] = target: T3, serotomin2 (5-HT2) receptors (Rattus norvegicus, UniProt P14842); experiment: 3H-spiroperidol binding, 5-HT2 receptors in rat cortical membranes; details: in vitro, read-out: 3H-Spiroperidol bindings 5-HT2 receptors IC50
# T3 construct: 5-HT2 receptors in rat cortical membranes; from tissue; host or cells: rat cortical membranes
# T3 sequence (P14842 whole entry): as the sequence (P14842 whole entry) above
# Protocol: as §2
# The affinity of compounds to dopamine (DA) D-2 receptors and serotomin2 (5-HT2) receptors was determined by in vitro receptor binding technique. Binding of ^3 H-spiroperidol to DA D-2 receptors in rat striatal membranes and to 5-HT2 receptors in rat cortical membranes was determined as described in detail by Arnt et al. (1984).
# as §1
# in vivo = details: mouse, iv
# [4] = i.v., mice; compared with known neuroleptics
# [5] = pharmacological testing (general statements); details: result in words
# Protocol: The compounds of Formula I were tested according to reliable and well recognized pharmacological tests as follows: […]
# [6] = i.p. test substance, mice, methylphenidate s.c. 60 mg/kg
# [7] = rat striatal membranes, in vitro, read-out: 3H-Spiroperidol bindings DA-2 receptors IC50
# [8] = Rattus norvegicus, sc, 24 h, read-out: Catalep. ED50 (sc) 24 h
Compound,"MePh Antg. ED50(ip) [1, 6]","Catalep. ED50(po) 1-6 h (Catalepsy; po, rat, 1-6 h)","Catalep. ED50(po) 24 h (Catalepsy; po, rat, 24 h)",Qvipaz. inh. ED50(sc) (5-HT2 receptor),"IC50 [2, 7]",IC50 [3],LD50 (in vivo),"ED50 ([1]; ip, i.p. test substance, mice, methylphenidate s.c. 60 mg/kg, read-out: MePh Antg. ED50(ip))","ED50 (Catalepsy; read-out: Catalep. ED50(po) 1-6 h, po, rat, 1-6 h)","ED50 (Catalepsy; read-out: Catalep. ED50(po) 24 h, po, rat, 24 h)",acute toxicity [4],"ED50 ([1]; ip, read-out: MePh Antg. ED50(ip))","ED50 (Catalepsy; Rattus norvegicus, po, read-out: Catalep. ED50(po) 1-6 h)",ED50 (Catalepsy; [8]),IC50 [2],effects in the pharmacological testing [5],"ED50 ([1]; sc, read-out: MePh Antg. ED50 (sc))","ED50 (Catalepsy; Rattus norvegicus, sc, read-out: Catalep. ED50 (sc) 1-6 h)"
"OCCN1CCN([C@@H]2C[C@@H](c3ccc(F)cc3)c3ccc(C(F)(F)F)cc32)CC1 (racemic) [Tefludazine, reference compound]",0.06 µmol/kg,0.61 µmol/kg,0.9 µmol/kg,0.06 µmol/kg,19 nM,8.6 nM,120 to 180 µmol/kg,–,–,–,–,–,–,–,–,–,–,–
"OCCN1CCN(c2cn(-c3ccc(F)cc3)c3ccc(C(F)(F)F)cc23)CC1 [Lu 21-152, 1-(4'-Flurophenyl)-3-(4-(2-hydroxyethyl)-piperazino)-5-trifluoromethyl-1H-indole]",–,–,–,0.023 µmol/kg,2.8 nM,7.4 nM,147 µmol/kg,0.11 µmol/kg,0.17 µmol/kg,0.28 µmol/kg,comparatively low acute toxicity,–,–,–,–,–,–,–
"CN1CC=C(c2cn(-c3ccc(F)cc3)c3ccc([N+](=O)[O-])cc23)CC1 [Lu 22-135, 1-(4'-Fluorophenyl)-5-nitro-3-(1-methyl-1,2,3,6-tetrahydropyridin-4-yl)-1H-indole]",–,–,–,0.009 µmol/kg,–,1.9 nM,276 µmol/kg,–,–,–,comparatively low acute toxicity,0.1 µmol/kg,0.078 µmol/kg,> 0.89 µmol/kg,1.1 nM,–,–,–
"CN1CCN(c2cn(-c3ccccc3)c3ccc(Cl)cc23)CC1 [Lu 23-015, 5-Chloro-3-(4-methylpiperazino)-1-phenyl-1H-indole, reference compound]",8.8 µmol/kg,12.0 µmol/kg,> 15 µmol/kg,0.062 µmol/kg,12 nM,3.9 nM,–,–,–,–,–,–,–,–,–,without interesting effects,–,–
"OCCN1CC=C(c2c[nH]c3ccc(Cl)cc23)CC1 [Lu 23-143, 5-chloro-3-(1-(2-hydroxyethyl)-1,2,3,6-tetrahydropyrid-4-yl)indol, reference compound]",–,–,–,4.5 µmol/kg,–,–,–,–,–,–,–,–,–,> 18 µmol/kg,–,almost inactive compared with the compounds of Formula I,72 µmol/kg,> 18 µmol/kg
